Legend:
[1] = system: passive cutaneous anaphylaxis (PCA); test: Intravenous activity in PCA test; assay type: in vivo, rat
Protocol: In the PCA test, normal animals are injected intradermally (i.d.) with antibodies contained in serum obtained from actively sensitized animals. The animals are then challenged intravenously with antigen mixed with a dye such as Evans' Blue. The increased capillary permeability caused by the antigen-antibody reaction causes the dye to leak from the site of the antibody injection. The test animals are then asphyxiated and the intensity of the reaction determined by measuring the diameter and intensity of the blue coloration on the inner surface of the animals' skin.
The ability of agents to interfere with PCA reactions is measured in male Charles River Wistar rats, 170-210 g. Reaginic antiserum, rich in IgE antibodies, is prepared according to Petillo et al., Int. Arch. […] Hyperimmune antiserum rich in IgG antibodies to hen egg albumin is prepared according to Orange et al., J. Exptl. […] Forty-eight hours prior to antigen challenge, the reaginic antiserum is injected intradermally (i.d.) into the shaved skin of a normal rat's back; 5 hours before challenge the hyperimmune antisera is similarly injected. […] The difference is expressed as percent blockage due to the compound employed.

[2] = system: plasma histamine rise in rats passively sensitized with IgE-rich antiserum; test: Passive systemic anaphylaxis, plasma histamine rise; assay type: in vivo, rat
[3] = system: isolated guinea pig ileum (acetylcholine); test: Isolated ileum spasm, acetylcholine; details: 10^-8 to 10^-4 M
[4] = system: isolated guinea pig ileum (histamine); test: Isolated ileum spasm, histamine; details: 10^-8 to 10^-4 M
[5] = system: isolated guinea pig ileum (slow reacting substance of anaphylaxis); test: Isolated ileum spasm, slow reacting substance of anaphylaxis; details: 10^-8 to 10^-4 M
[6] = system: ulcerogenic effects of aspirin; test: Protection against ulcerogenic effects of aspirin; assay type: in vivo; details: p.o.; aspirin 100 mg/kg p.o.
Protocol: Compound III also protects against the ulcerogenic effects of aspirin, 100 mg/kg p.o. where dose-related effects are seen over the dose range of 10 to 1000 μg/kg, p.o. with an ED50 of 100 μg/kg. Compound III is also active in a phenylbutazone gastric ulcer model where an oral ED50 of 200 μg/kg is observed. […] "Cytoprotective," a term coined recently to describe the antiulcer effects of prostaglandins that are independent of antisecretory activity, [Robert, Advances in Prostaglandin and Thromboxane Research 2, 507 (1976); Miller et al., Gut 20, 75 (1979); Robert et al., Gastroenterology 72, 1121 (1977).] aptly characterizes the effects of compound III.

[7] = system: pentagastrin-stimulated acid output; test: Pentagastrin-stimulated acid output in Heidenhain pouch dogs; assay type: in vivo, dog; details: 5 mg/kg, i.v.
[8] = system: urinary volume output and sodium and potassium excretion; test: Diuretic activity; assay type: in vivo; details: oral
Protocol: When given orally, it caused a dose-related increase in urinary volume output at doses in the range 0.3 to 5 mg/kg. […] These findings indicate that the dose-response range for diuretic activity is considerably higher than that for antiulcer effects and just below that for antiallergy effects (1 to 10 mg/kg).

[9] = system: dogs; test: Toleration study, oral, seven days, dogs; assay type: in vivo, dog
Protocol: In toleration studies, III were given orally by gavage to dogs for a period of seven days at doses of 50, 150 and 300 mg/kg/day.

[10] = system: serum enzyme levels; test: Serum enzyme levels, intravenous five days, dogs; assay type: in vivo, dog; details: five days, 1, 3, 10, 3 and 3 mg/kg
[11] = system: bone marrow; test: Bone marrow chromosomal damage, mice; assay type: in vivo, mouse; details: single oral 40 mg/kg; 6, 12 or 24 hours
Protocol: Single oral doses of III, 40 mg/kg, were administered to groups of mice who were sacrificed 6, 12 or 24 hours later. […] From these findings, it is evident that III has no obvious mutagenic potential.

[12] = Oral absorption and plasma concentrations, rats; assay type: in vivo, rat
Protocol: This is supported by the observations of plasma concentrations of 3 to 7 μg/ml one hour after oral administration of III, 50 to 300 mg/kg.

[13] = oral, 7 days, 50, 150 and 300 mg/kg/day

## O=C(Nc1nnn[nH]1)c1cnc2sc3c(n2c1=O)CCCC3 [Compound III, N-(5-Tetrazolyl)-1-oxo-1H-cyclohexenothiazolo[3,2-a]pyrimidine-2-carboxamide]
[1]
  intravenous activity range in the PCA test: 0.03 to 1.0 mg/kg
[1]; vs Intal
  potency relative to Intal in the PCA test: ~26 times
[2]; i.v., vs Intal
  potency relative to Intal, passive systemic anaphylaxis: 13 times
[2]; rat, in vivo
  passive systemic anaphylaxis: prevented
[3]
  antagonism of spasm of isolated guinea pig ileum: does not antagonize spasms
[4]
  antagonism of spasm of isolated guinea pig ileum: does not antagonize spasms
[5]
  antagonism of spasm of isolated guinea pig ileum: does not antagonize spasms
[6]
  dose range of dose-related effects, aspirin ulcer: 0.01 to 1 mg/kg
[7]
  pentagastrin-stimulated acid output: does not affect pentagastrin-stimulated acid output
[8]
  dose range of dose-related increase in urinary volume output: 0.3 to 5 mg/kg
[8]; 0.3 to 5 mg/kg
  maximum increase in urinary volume output: twofold increase in volume output
  sodium and potassium excretion: an increase in sodium and potassium excretion was observed
  urinary concentrations of sodium and potassium ions: unchanged
[9]; capsule after, rather than before, meals
  emetic effect, capsule after meals: could be eliminated
[9]; [13]
  gross pathological changes: No gross pathological changes were observed
  microscopic examination of liver, kidney, heart and lung: did not reveal any changes
[10]
  serum enzyme levels: remained normal
[11]
  chromosomal damage in bone marrow, single dose: did not reveal any chromosomal damage
[12]; one hour after oral 50 to 300 mg/kg, 60 min
  plasma concentration: 3000 to 7000 ng/mL
[12]; ratio of comparably effective oral and intravenous doses, PCA test
  oral absorption: good oral absorption

From patent publication US4535081A, “Antiallergic and antiulcer 1-oxo-1H-thiazolo[3,2-a]pyrimidine-2-carboxamides and intermediates therefor” (Pfizer Inc., priority 1983, dated 1985)
